The record followed here is patent US20180325947A1, “USE OF MAPK INHIBITORS TO REDUCE LOSS OF HEMATOPOIETIC STEM CELLS DURING EX VIVO CULTURE AND/OR GENETIC MANIPULATION” (Children's Hospital Medical Center, priority 2015, published 2018).

Assay type in all cases: cell-based
Data set [1] deals with human HSCs (CD34+ 38- 90+ 45RA- 49f+). As to the kind of experiment: percent phenotypic hHSC in ex vivo cultured CD34+ cells, flow cytometry. Conditions: for percent hHSCs ex vivo in culture: ex vivo culture up to 72 hours. How it is done: Four different p38 inhibitors all increase the percent hHSCs ex vivo in culture studies up to 72 hours.
(§1) Human CD34^+ cells were cultured and transduced as described in FIG. 13, panel A. Harvested cells were stained with trypan blue for viability, total CD34+ cell number (Panel A), fold change in percent human CD34^+ 38^− 90^+ 45RA^− 49f^+ (HSCs) (Panel B), percent annexin V^+ (apoptotic) CD34^+38^− 90^+ cells (Panel C), fold change in transduction efficiency (based on GFP marker percentage) over non-treated CD34^+38^− 90^+ cells (Panel D), fold change in MitoSOX MFI in CD34^+38^− 90^+ cells are shown (Panel E). Data represents mean±SEM. Statistics: Student's t test, […], *p<0.05, **p<0.01, ***p<0.001.

In data set [2] the test system is human CD34+ 38- 90+ HSC enriched population. Description: cell cycle status of HSCs (Ki67 / Hoechst), flow cytometry. Conditions: for G0 quiescent phase of untransduced and transduced HSCs: early time period of ex vivo culture. The procedure:
(§2) Human MPB derived CD34^+ cells were cultured and transduced with lentivirus (LV) or retrovirus (RV) for the indicated time points. Representative Immunofluorescence images of sorted human CD34^+ 38^− 90^+ population treated with or without p38i for 72 hours stained with anti-γH2AX and 53BP1 (Panel A) and quantification of γ-H2AX (Panel B) and 53BP1 (Panel C) MFI/cell. Panel D: Representative histogram plot from flow cytometric analysis of CD34^+ 38^− 90^+ HSC enriched cells stained for γ-H2AX with or without p38 inhibitor (p38i) and quantification of fold change in mean fluorescence intensity (MFI) of γ-H2AX in HSCs (Panel E) and percent GH2AX^+ cells (Panel F) at indicated time period. Percentage shown in histograms are cells positive for γH2AX and the numbers below is mean fluorescent intensity (MFI) (n=5 independent experiments). FACS plot representing HSCs in G0 (Quiescent), G1, and S-G2-M phase of cell cycle with or without p38i (Panel G) and quantification (Panel H) of HSC enriched population at different cell cycle phase at indicated time of ex vivo culture. Percentage of (±SEM) Ki67^− (G0) and Ki67^+ (G1-S-G2-M) HSCs is depicted on the y-axis. (n=4 independent experiments for 24 h LV and n=5 independent experiments for 42 h LV and 72 h RV)). Statistics: paired Student's t test, *p<0.05, **p<0.01, ***p<0.001.
(§3) Human MPB derived CD34^+ cells were cultured and transduced as described in FIG. 17. Panel A: Quantification of γ-H2AX^+ CD34^+ 38^− 90^+ cells at 24, 42, & 72 hours. n=5-8 independent experiments/condition). Panel B: Quantification of immunofluorescence analysis for γ-H2AX (left) and 53BP1 (right) MFI per sorted human CD34^+ 38^− 90^+ cell with or without p38i for 42 hours. Panel C: Quantitative plot representing CD34^+ 38^− 90^+ cells in G0-G1, and S-G2-M phase of cell cycle with or without p38i at 42 hours of ex vivo culture and lentivirus (LV) transduction. (n=6 independent experiments/condition). Statistics: paired Student's t test, *p<0.05, **p<0.01, ***p<0.001. Statistics: Student's t test, *p<0.05, **p<0.01, ***p<[…].
Ki67, a nuclear antigen associated with cell proliferation, was used to determine cell cycle status via flow cytometry; negative stains were considered to represent quiescent HSCs.
A general note: Flow cytometry measures light scatter and fluorescence of single cells or particles in a stream.

For data set [3] the test system is unchanged. Description: DNA damage response (gamma-H2AX, 53BP1) by immunofluorescence and flow cytometry. The procedure: as §2, §3
Human BM derived CD34 cells were cultured and transduced with lentivirus (LV) for 48 hours. Representative FACS plot representing bone marrow derived HSC enriched CD34^+ 38^− 90^+ population in G0 (Quiescent), G1, and S-G2-M phase of cell cycle with or without p38i (left) and the corresponding representative histogram plot of γH2AX at indicated time and treatment. Percentage shown in histogram refers to cells positive for γH2AX and the numbers below is mean fluorescent intensity (MFI).
p38 inhibition maintains the quiescent phase of HSCs and reduces DNA damage response (DDR) early in culture. Cell cycle entry and gene manipulation induces a DDR in human HSCs that is reduced by inhibiting p38MAPK early in culture. DNA double-strand breaks in Human HSCs were assessed by γ-H2AX staining, a sensitive and specific indicator of DNA double-strand breaks.

For another data set, the system named is human CD34+ cells. Description: total CD34+ cell number / viability, trypan blue. The conditions noted are these: with or without p38i. How it is done:
as §1

Setting [4] is: before the first HSC division (24 h).

Regarding `Cc1ccc(-n2nc(C(C)(C)C)cc2NC(=O)Nc2ccc(OCCN3CCOCC3)c3ccccc23)cc1` [BIRB-796, 1-[5-tert-butyl-2-(4-methylphenyl)pyrazol-3-yl]-3-[4-(2-morpholin-4-ylethoxy)naphthalen-1-yl]urea], the “human HSCs in vitro” value in data set [1] (at 400, 600 and 800 nm concentrations) was “appeared to increase”. For the same compound, the “percent hHSCs ex vivo in culture” value is listed as “significant increase” in data set [1] and “increased” in data set [1] (listed as p38i). Besides, in data set [1] (stem cells having undergone genetic manipulation that induces a DNA double strand break), the “loss of stem cells during in vitro or ex vivo culture” value is “successfully reduced”. Also, the “effect on HSC cell cycle” value in data set [2] (after 24 h, as HSC progressed through cell cycle) was “lost”. Moreover, the “proportion of HSC in the G0 quiescent phase” value in data set [2] (setting [4]) was “significantly increased”. Moreover, in data set [2] (setting [4]), the “proportion of HSC in the S-G2-M phase” value is recorded as “decreased”. For the same compound, the “G0 quiescent phase of untransduced and transduced HSCs” value in data set [2] is “maintain”; in data set [2] (listed as p38i), “retains”. Moreover, the “percentage of γH2AX+ cells” value in data set [3] (36-42 h and 72-96 h groups) is given as “significantly reduced”. Further, the γH2AX staining result in data set [3] (24 hours of culture, flow cytometry) was “returned to levels seen in unmanipulated HSC”. Moreover, the “DNA Damage Response (DDR)” value was “reduces” in data set [3] (MPB derived CD34+ 38- 90+ cells, ex vivo culture and gene transfer); “reduces” in data set [3] (bone marrow (BM) derived CD34+ 38- 90+ cells, LV 48 hours). Besides, the “γH2AX foci (DNA damage response)” value in data set [3] (cultured and transduced for 36-42 hours or 72 hours) is “rescued”. Also, the “total number of CD34+ cells or their viability” value in the data set with human CD34+ cells is on record as “no significant change”.
